{
  "source": "paper PMC6723440",
  "about": "(Toxins, 2019)",
  "key": {"[1]": {"conditions": "human, pH 7.4"}, "[2]": {"conditions": "human; for percentage of metabolized parent toxin in phase I reactions: microsomes, 1 h"}, "[3]": {"conditions": "in vivo; cited from earlier work"}, "[4]": {"conditions": "human, pH 7.4", "remark": "listed apart in the source"}, "[5]": {"conditions": "human; cited from earlier work"}},
  "note": "Like-named read-outs stand apart in the source and are kept apart here.",
  "data": [
    {"compound": "CC(=O)OC[C@]12C[C@H](OC(=O)CC(C)C)C(C)=C[C@H]1O[C@@H]1[C@H](O)[C@@H](O)[C@@]2(C)[C@]12CO2", "note": "[HT-2, HT-2 toxin]", "values": [
      {"measurement": "LC-MS Library: metabolites generated", "setting": "[1]", "value": "Phase I metabolites: 4-de-Ac-NEO and its isomer, 3′-OH-HT-2, 4′-OH-HT-2 and its isomer Three OH-T-2 metabolites at 7 or 10 or 16-OH-HT-2 Two unknown metabolites Glucuronides: Gluc-3-HT-2"}
    ]},
    {"compound": "CC1=C[C@H]2O[C@@H]3[C@H](O)C[C@](C)([C@@]2(CO)[C@H](O)C1=O)[C@]31CO1", "note": "[DON, deoxynivalenol]", "values": [
      {"measurement": "converted into DNIV", "setting": "[2]; pH 7.4", "value": "less than 1%"},
      {"measurement": "LC-MS Library: metabolites generated", "setting": "[1]", "value": "Phase I metabolites: NIV, DOM-1 and its two isomers, Glucuronides: 15-Gluc-DON, 3-Gluc-DON"},
      {"measurement": "predominant species in urine", "setting": "[3]", "value": 27, "unit": "%"},
      {"measurement": "total urinary DON present as free DON", "setting": "[3]", "value": 27.4, "unit": "%"},
      {"measurement": "total urinary deoxynivalenol (DON) composed of its glucuronides (15-Gluc-DON and 3-Gluc-DON)", "setting": "[3]", "value": "approximately 72.6%"}
    ]},
    {"compound": "C[C@H]1CCC[C@H](O)CCCCCc2cc(O)cc(O)c2C(=O)O1", "note": "[α-ZAL, 7-α-hydroxy-zearalanol]", "values": [
      {"measurement": "percentage of metabolized parent toxin in phase I reactions", "setting": "[2]", "value": 29, "unit": "%"}
    ]},
    {"compound": "CC(=O)OCC12CC(OC(=O)CC(C)C)C(C)=CC1OC1C(OC3OC(C(=O)O)C(O)C(O)C3O)C(OC(C)=O)C2(C)C12CO2", "note": "(stereo not drawn) [T-2 glucuronide]", "values": [
      {"measurement": "share of glucuronide form", "setting": "[4]", "value": 8, "unit": "%"}
    ]},
    {"compound": "C[C@H]1CCCC(=O)CCC/C=C/c2cc(O)cc(O)c2C(=O)O1", "note": "[ZEN, zearalenone]", "values": [
      {"measurement": "percentage of metabolized parent toxin in phase I reactions", "setting": "[2]; pH 7.4", "value": 27, "unit": "%"},
      {"measurement": "Number of Metabolites (n): Desaturation oxidation, −(H2) +(O2)", "setting": "[2]; pH 7.4", "value": 0},
      {"measurement": "Number of Metabolites (n): Desaturation, oxidation, −(H2) +(O)", "setting": "[2]; pH 7.4", "value": 1},
      {"measurement": "Number of Metabolites (n): Desaturation, oxidation, −(H4) +(O)", "setting": "[2]; pH 7.4", "value": 0},
      {"measurement": "Number of Metabolites (n): Oxidation, +(O2)", "setting": "[2]; pH 7.4", "value": 0},
      {"measurement": "Number of Metabolites (n): Oxidation, −(H4) +(O2)", "setting": "[2]; pH 7.4", "value": 0},
      {"measurement": "Number of Metabolites (n): Reduction, oxidation, +(H2) +(O)", "setting": "[2]; pH 7.4", "value": 2},
      {"measurement": "share of Oxidation +(O) metabolites in ∑ n", "setting": "[2]; pH 7.4", "value": "9(75%)"},
      {"measurement": "∑ n, total number of oxidized metabolites", "setting": "[2]; pH 7.4", "value": 12},
      {"measurement": "Total Number of Glucuronides", "setting": "[4]", "value": 10},
      {"measurement": "converted into glucoronides", "setting": "[4]", "value": 99, "unit": "%"},
      {"measurement": "glucuronides of oxidized metabolites and double glucuronides (minor products)", "setting": "[4]", "value": 8, "unit": "%"},
      {"measurement": "glucuronides of parent toxins at position C-14", "setting": "[4]", "value": 86, "unit": "%"},
      {"measurement": "share of species, Figure 7 pie", "setting": "[4]", "value": 1, "unit": "%"},
      {"measurement": "sum of parent glucuronides", "setting": "[4]", "value": 91, "unit": "%"},
      {"measurement": "LC-MS Library: metabolites generated", "setting": "[1]", "value": "Phase I metabolites: (-(H2) +(O))-ZEN, (+(O))-ZEN, (+(H2)+ (O))-ZEN Glucuronides: Gluc-16-ZEN, Gluc-14-ZEN, Gluc-(+O)-ZEN, 2xGluc-ZEN"}
    ]},
    {"compound": "C[C@H]1CCC[C@H](O)CCC/C=C/c2cc(O)cc(O)c2C(=O)O1", "note": "[α-ZOL, 7-α-hydroxy-zearalenol]", "values": [
      {"measurement": "percentage of metabolized parent toxin in phase I reactions", "setting": "[2]", "value": 70, "unit": "%"}
    ]},
    {"compound": "CC(=O)O[C@@H]1C[C@]2(C)[C@@]3(CO)[C@H](O)C(=O)C(C)=C[C@H]3O[C@H]1[C@@]21CO1", "note": "[3-AcDON, 3-acetyldeoxynivalenol]", "values": [
      {"measurement": "converted into DON", "setting": "[2]; pH 7.4", "value": 50, "unit": "%"},
      {"measurement": "LC-MS Library: metabolites generated", "setting": "[1]", "value": "Phase I metabolites: DON Glucuronides: Gluc-3-AcDON"},
      {"measurement": "metabolized to DON", "setting": "[5]", "value": 78, "unit": "%"}
    ]},
    {"compound": "C[C@H]1CCCC(=O)CCCCCc2cc(O)cc(O)c2C(=O)O1", "note": "[ZAN, zearalanone]", "values": [
      {"measurement": "percentage of metabolized parent toxin in phase I reactions", "setting": "[2]; pH 7.4", "value": 66, "unit": "%"},
      {"measurement": "Number of Metabolites (n): Desaturation oxidation, −(H2) +(O2)", "setting": "[2]; pH 7.4", "value": 2},
      {"measurement": "Number of Metabolites (n): Desaturation, oxidation, −(H2) +(O)", "setting": "[2]; pH 7.4", "value": 1},
      {"measurement": "Number of Metabolites (n): Desaturation, oxidation, −(H4) +(O)", "setting": "[2]; pH 7.4", "value": 0},
      {"measurement": "Number of Metabolites (n): Oxidation +(O)", "setting": "[2]; pH 7.4", "value": "5(23%)"},
      {"measurement": "Number of Metabolites (n): Oxidation, +(O2)", "setting": "[2]; pH 7.4", "value": "6(27%)"},
      {"measurement": "Number of Metabolites (n): Oxidation, −(H4) +(O2)", "setting": "[2]; pH 7.4", "value": 0},
      {"measurement": "share of Oxidation +(O) metabolites in ∑ n", "setting": "[2]; pH 7.4", "value": "5(23%)"},
      {"measurement": "share of Oxidation, +(O2) metabolites in ∑ n", "setting": "[2]; pH 7.4", "value": "6(27%)"},
      {"measurement": "share of Reduction, oxidation, +(H2) +(O) metabolites in ∑ n", "setting": "[2]; pH 7.4", "value": "8(36%)"},
      {"measurement": "∑ n, total number of oxidized metabolites", "setting": "[2]; pH 7.4", "value": 22},
      {"measurement": "Total Number of Glucuronides", "setting": "[4]", "value": 24},
      {"measurement": "converted into glucoronides", "setting": "[4]", "value": 93, "unit": "%"},
      {"measurement": "glucuronides of oxidized metabolites and double glucuronides (minor products)", "setting": "[4]", "value": 19, "unit": "%"},
      {"measurement": "glucuronides of parent toxins at position C-14", "setting": "[4]", "value": 73, "unit": "%"},
      {"measurement": "share of species, Figure 7 pie", "setting": "[4]", "value": 7, "unit": "%"},
      {"measurement": "sum of parent glucuronides", "setting": "[4]", "value": 74, "unit": "%"},
      {"measurement": "LC-MS Library: metabolites generated", "setting": "[1]", "value": "Phase I metabolites: (-(H2) +(O))-ZAN, (+(O))-ZAN, (+(H2)+ (O))-ZAN, (+(O2))-ZAN, (-(H2) +(O2))-ZAN Glucuronides: Gluc-16-ZAN, Gluc-14-ZAN, Gluc-(+O)- ZAN, 2xGluc- ZAN, Gluc-(+(H2)+(O))-ZAN, 2 × Gluc-(+O)-ZAN, 2 × Gluc-(+(H2)+(O))-ZAN"}
    ]},
    {"compound": "C[C@H]1CCC[C@@H](O)CCCCCc2cc(O)cc(O)c2C(=O)O1", "note": "[β-ZAL, 7-β-hydroxy-zearalanol]", "values": [
      {"measurement": "percentage of metabolized parent toxin in phase I reactions", "setting": "[2]", "value": 23, "unit": "%"}
    ]},
    {"compound": "CC1=C[C@H]2O[C@@H]3[C@H](O)[C@@H](O)[C@](C)([C@@]2(CO)[C@H](O)C1=O)[C@]31CO1", "note": "[NIV, nivalenol]", "values": [
      {"measurement": "converted into DNIV", "setting": "[2]; pH 7.4", "value": 5, "unit": "%"},
      {"measurement": "glucuronidation", "setting": "[4]", "value": "< 1", "unit": "%"}
    ]},
    {"compound": "CC(=O)OC[C@]12[C@H](O)C(=O)C(C)=C[C@H]1O[C@@H]1[C@H](O)C[C@@]2(C)[C@]12CO2", "note": "[15-AcDON, 15-acetyldeoxynivalenol]", "values": [
      {"measurement": "converted into DON", "setting": "[2]; pH 7.4", "value": 1, "unit": "%"},
      {"measurement": "LC-MS Library: metabolites generated", "setting": "[1]", "value": "Phase I metabolites: DON Glucuronides: Gluc-15-AcDON"}
    ]}
  ]
}
